Source: patent US20240408169A1 (priority 2023, published 2024)
*1 amine or outer side, *2 acyl side, *3 side chain or, on linkers, in order; H or OH if unused. Where a SMILES comes first, the peptide text is derived from it. Bridges are numbered along the chain shown (N, C = ends). [ ]: non-standard residue; d: D form. The star is where a group is joined. X122 = CN([C@@H](Cc1cc(Cl)ccc1C1=CCN(C(=O)C(C)(C)C)CC1)C(=O)[*:2])[*:1]; X181 = CN([C@@H](Cc1cc(Cl)ccc1C1=CCN(C(=O)C2CC2)CC1)C(=O)[*:2])[*:1]; X167 = CN([C@@H](Cc1cc(F)ccc1C1=CCN(S(C)(=O)=O)CC1)C(=O)[*:2])[*:1]; X137 = CN([C@@H](Cc1cc(F)ccc1-c1cnn(S(C)(=O)=O)c1)C(=O)[*:2])[*:1]; X200 = CN([C@@H](Cc1cc(F)ccc1C1CCN(C(=O)C2CC2)CC1)C(=O)[*:2])[*:1]; X153 = CN([C@@H](Cc1cc(F)ccc1-c1cnn(C2CCOCC2)c1)C(=O)[*:2])[*:1]; X178 = CN([C@@H](Cc1cc(F)ccc1-c1cnn(C2CCOC2)c1)C(=O)[*:2])[*:1]; X208 = CN([C@@H](Cc1cc(F)ccc1-c1cnn(CC(F)F)c1)C(=O)[*:2])[*:1]; NMehhhLys(Me) = CN([C@@H](CCCCCCCN(C)[*:3])C(=O)[*:2])[*:1]; X22 = CN([C@@H](Cc1cc(Cl)ccc1-c1cnn(C)c1)C(=O)[*:2])[*:1]; NMe(hhhLys) = CN([C@@H](CCCCCCCN[*:3])C(=O)[*:2])[*:1]; Cyclobutanecarbonyl(1-CF3) = O=C(C1(C(F)(F)F)CCC1)*; cBuCO(3,3-F2-1-CF3) = O=C(C1(C(F)(F)F)CC(F)(F)C1)*; Pro(trans-4-F) = O=C(O)[C@@H]1C[C@@H](F)CN1; Gly(cPr) = N[C@H](C(=O)O)C1CC1

Experiments:
CyclinE1/CDK2 = molecular target: T1, CyclinE1/CDK2 (Homo sapiens, UniProt P24864); test: Fluorescence Polarization (FP) competitive binding assay, Cyclin E1/Cdk2; settings: 10 nM Cyclin E1/Cdk2, 2 nM FAM probe; average of 2-3 independent experiments; read-out: Cyclin E FP IC50;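 also: readings taken after two-hour equilibration at room temperature in HEPES buffer with NaCl, DTT, NP-40 and BSA, IC50 fitted from eight-concentration serial dilution series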
T1 construct: purchased Eurofins, discovery 14-475

OVCAR3 cells = test: MTT proliferation assay, OVCAR3; assay type: cell-based; settings: 5 days compound exposure, 1:3 serial dilution starting at 10 μM;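 also: compound given as an 8- or 10-point series, one day after plating, with exposure covering roughly 3-4 cell doublings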
CyclinB1/CDK1 = molecular target: T2, CyclinB1/CDK1 (Homo sapiens, UniProt P14635); test: Fluorescence Polarization (FP) competitive binding assay, Cyclin B1/Cdk1; settings: 10 nM Cyclin B1/Cdk1, 2 nM FAM probe; average of 2-3 independent experiments; read-out: Cyclin B FP IC50;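 also: fluorescence polarization read after equilibration at room temperature, with IC50 taken from serially diluted dose-response curves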
T2 construct: purchased Eurofins, discovery 14-450

CyclinA2/CDK2 = molecular target: T3, CyclinA2/CDK2 (Homo sapiens, UniProt P20248); test: Fluorescence Polarization (FP) competitive binding assay, Cyclin A2/Cdk2; settings: 8 nM Cyclin A2/Cdk2, 2 nM FAM probe; average of 2-3 independent experiments; read-out: Cyclin A FP IC50;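 also: plates equilibrated two hours at room temperature before polarization reading, IC50 fitted from eight-concentration compound titration curves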
T3 construct: purchased CRELUX Protein Services

NCI-H1048 cells = test: MTT proliferation assay, NCI-H1048; assay type: cell-based; settings: 5 days compound exposure, 1:3 serial dilution starting at 10 μM;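 also: Dose-response in 96-well plates over 8 or 10 concentration points, with exposure spanning 3-4 cell doublings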

| Compound | IC50 (CyclinE1/CDK2) [nM] | GI50 (OVCAR3 cells) [nM] | IC50 (CyclinB1/CDK1) [nM] | IC50 (CyclinA2/CDK2) [nM] | GI50 (NCI-H1048 cells) [nM] |
| --- | --- | --- | --- | --- | --- |
| CC(C)C[C@@H]1NC(=O)[C@@H](N(C)C(=O)[C@@H](NC(=O)[C@@H]2CCCN2C(=O)C2(C(F)(F)F)CCC2)C2CC2)CCCCCCCN(C)C(=O)[C@H](Cc2cc(Cl)ccc2-c2cnn(C)c2)N(C)C1=O [Example 76] ({Cyclobutanecarbonyl(1-CF3)}-P[Gly(cPr)][NMehhhLys(Me)]L[X22]; lactam 3-C) | 880 | 120 | 20 | 20 | 80 |
| CC(C)C[C@@H]1NC(=O)[C@@H](N(C)C(=O)[C@@H](NC(=O)[C@@H]2CCCN2C(=O)C2(C(F)(F)F)CC(F)(F)C2)C2CC2)CCCCCCCN(C)C(=O)[C@H](Cc2cc(Cl)ccc2-c2cnn(C)c2)N(C)C1=O [Example 77] ({cBuCO(3,3-F2-1-CF3)}-P[Gly(cPr)][NMehhhLys(Me)]L[X22]; lactam 3-C) | 1710 | 70 | 20 | 20 | 60 |
| COCn1cc(-c2ccc(Cl)cc2C[C@H]2C(=O)N(C)CCCCC=CC[C@H](N(C)C(=O)[C@@H](NC(=O)[C@@H]3C[C@@H](F)CN3C(=O)C3(C(F)(F)F)CC(F)(F)C3)C3CC3)C(=O)N[C@@H](CC(C)C)C(=O)N2C)cn1 [Example 79] | 630 | 40 | 20 | 50 | 30 |
| CC(C)C[C@H]1NC(=O)[C@H](N(C)C(=O)[C@H](NC(=O)[C@H]2C[C@H](F)CN2C(=O)C2(C#N)CCC2)C2CC2)CCCCCCCN(C)C(=O)[C@@H](Cc2cc(Cl)ccc2-c2cnn(C)c2)N(C)C1=O [Example 82] | 220 | 70 | 20 | 20 | 30 |
| CC(C)C[C@@H]1NC(=O)[C@@H](N(C)C(=O)[C@@H](NC(=O)[C@@H]2C[C@@H](F)CN2C(=O)C2(C(F)(F)F)CCC2)C2CC2)CC=CCCCCN(C)C(=O)[C@H](Cc2cc(F)ccc2-c2cnn(CC(F)F)c2)N(C)C1=O [Example 83] | 100 | 10 | 20 | 40 | 20 |
| CC(C)C[C@@H]1NC(=O)[C@@H](N(C)C(=O)[C@@H](NC(=O)[C@@H]2C[C@@H](F)CN2C(=O)C2(C(F)(F)F)CC(F)(F)C2)C2CC2)CC=CCCCCN(C)C(=O)[C@H](Cc2cc(F)ccc2-c2cnn(C3CCOCC3)c2)N(C)C1=O [Example 84] | 290 | 10 | 20 | 50 | 20 |
| CC(C)C[C@@H]1NC(=O)[C@@H](N(C)C(=O)[C@@H](NC(=O)[C@@H]2C[C@@H](F)CN2C(=O)C2(C(F)(F)F)CC(F)(F)C2)C2CC2)CC=CCCCCN(C)C(=O)[C@H](Cc2cc(F)ccc2-c2cnn(C3CCOC3)c2)N(C)C1=O (stereo partly drawn) [Example 85] | 280 | 20 | 20 | 60 | 20 |
| CC(C)C[C@@H]1NC(=O)[C@@H](N(C)C(=O)[C@@H](NC(=O)[C@@H]2C[C@@H](F)CN2C(=O)C2(C(F)(F)F)CC(F)(F)C2)C2CC2)CC=CCCCCN(C)C(=O)[C@H](Cc2cc(F)ccc2-c2cnn(C3CC3)c2)N(C)C1=O [Example 86] | 250 | 20 | 20 | 60 | 20 |
| CC(C)C[C@@H]1NC(=O)[C@@H](N(C)C(=O)[C@@H](NC(=O)[C@@H]2C[C@@H](F)CN2C(=O)C2(C(F)(F)F)CC(F)(F)C2)C2CC2)CC=CCCCCN(C)C(=O)[C@H](Cc2cc(F)ccc2-c2cnn(S(C)(=O)=O)c2)N(C)C1=O [Example 87] | 890 | 60 | 20 | 180 | 50 |
| CC(C)C[C@@H]1NC(=O)[C@@H](N(C)C(=O)[C@@H](NC(=O)[C@@H]2C[C@@H](F)CN2C(=O)C2(C(F)(F)F)CC(F)(F)C2)C2CC2)CC=CCCCCNC(=O)[C@H](Cc2cc(Cl)ccc2C2=CCN(C(=O)C(C)(C)C)CC2)N(C)C1=O [Example 91] | 5730 | 260 | 20 | 100 | 230 |
| CC(C)C[C@@H]1NC(=O)[C@@H](N(C)C(=O)[C@@H](NC(=O)[C@@H]2C[C@@H](F)CN2C(=O)C2(C(F)(F)F)CCC2)C2CC2)CCCCCCCN(C)C(=O)[C@H](Cc2cc(F)ccc2-c2cnn(CC(F)F)c2)N(C)C1=O [Example 92] ({Cyclobutanecarbonyl(1-CF3)}-[Pro(trans-4-F)][Gly(cPr)][NMehhhLys(Me)]L[X208]; lactam 3-C) | 100 | 10 | 20 | 20 | 10 |
| CC(C)C[C@@H]1NC(=O)[C@@H](N(C)C(=O)[C@@H](NC(=O)[C@@H]2C[C@@H](F)CN2C(=O)C2(C(F)(F)F)CC(F)(F)C2)C2CC2)CCCCCCCN(C)C(=O)[C@H](Cc2cc(F)ccc2-c2cnn(C3CCOCC3)c2)N(C)C1=O [Example 93] ({cBuCO(3,3-F2-1-CF3)}-[Pro(trans-4-F)][Gly(cPr)][NMehhhLys(Me)]L[X153]; lactam 3-C) | 140 | 10 | 20 | 20 | 10 |
| CC(C)C[C@@H]1NC(=O)[C@@H](N(C)C(=O)[C@@H](NC(=O)[C@@H]2C[C@@H](F)CN2C(=O)C2(C(F)(F)F)CC(F)(F)C2)C2CC2)CCCCCCCN(C)C(=O)[C@H](Cc2cc(F)ccc2-c2cnn(C3CCOC3)c2)N(C)C1=O (stereo partly drawn) [Example 94] ({cBuCO(3,3-F2-1-CF3)}-[Pro(trans-4-F)][Gly(cPr)][NMehhhLys(Me)]L[X178]; lactam 3-C) | 180 | 10 | 20 | 20 | 10 |
| CC(C)C[C@@H]1NC(=O)[C@@H](N(C)C(=O)[C@@H](NC(=O)[C@@H]2C[C@@H](F)CN2C(=O)C2(C(F)(F)F)CC(F)(F)C2)C2CC2)CCCCCCCN(C)C(=O)[C@H](Cc2cc(F)ccc2-c2cnn(S(C)(=O)=O)c2)N(C)C1=O [Example 95] ({cBuCO(3,3-F2-1-CF3)}-[Pro(trans-4-F)][Gly(cPr)][NMehhhLys(Me)]L[X137]; lactam 3-C) | 530 | 20 | 20 | 50 | 10 |
| CC(C)C[C@@H]1NC(=O)[C@@H](N(C)C(=O)[C@@H](NC(=O)[C@@H]2C[C@@H](F)CN2C(=O)C2(C(F)(F)F)CC(F)(F)C2)C2CC2)CCCCCCCNC(=O)[C@H](Cc2cc(Cl)ccc2C2=CCN(C(=O)C3CC3)CC2)N(C)C1=O [Example 97] ({cBuCO(3,3-F2-1-CF3)}-[Pro(trans-4-F)][Gly(cPr)][NMe(hhhLys)]L[X181]; lactam 3-C) | 1450 | 30 | 20 | 20 | 20 |
| CC(C)C[C@@H]1NC(=O)[C@@H](N(C)C(=O)[C@@H](NC(=O)[C@@H]2C[C@@H](F)CN2C(=O)C2(C(F)(F)F)CC(F)(F)C2)C2CC2)CCCCCCCNC(=O)[C@H](Cc2cc(Cl)ccc2C2=CCN(C(=O)C(C)(C)C)CC2)N(C)C1=O [Example 99] ({cBuCO(3,3-F2-1-CF3)}-[Pro(trans-4-F)][Gly(cPr)][NMe(hhhLys)]L[X122]; lactam 3-C) | 1540 | 30 | 20 | 20 | 20 |
| CC(C)C[C@@H]1NC(=O)[C@@H](N(C)C(=O)[C@@H](NC(=O)[C@@H]2C[C@@H](F)CN2C(=O)C2(C(F)(F)F)CC(F)(F)C2)C2CC2)CCCCCCCN(C)C(=O)[C@H](Cc2cc(F)ccc2C2=CCN(S(C)(=O)=O)CC2)N(C)C1=O [Example 100] ({cBuCO(3,3-F2-1-CF3)}-[Pro(trans-4-F)][Gly(cPr)][NMehhhLys(Me)]L[X167]; lactam 3-C) | 450 | 20 | 20 | 20 | 20 |
| CC(C)C[C@@H]1NC(=O)[C@@H](N(C)C(=O)[C@@H](NC(=O)[C@@H]2C[C@@H](F)CN2C(=O)C2(C(F)(F)F)CC(F)(F)C2)C2CC2)CCCCCCCN(C)C(=O)[C@H](Cc2cc(F)ccc2C2CCN(C(=O)C3CC3)CC2)N(C)C1=O [Example 101] ({cBuCO(3,3-F2-1-CF3)}-[Pro(trans-4-F)][Gly(cPr)][NMehhhLys(Me)]L[X200]; lactam 3-C) | 470 | 30 | 20 | 30 | 20 |
